In US9943592B2, “Vaccine adjuvants from self-assembling peptides” (priority 2011, dated 2018):
Square brackets hold non-standard residues; d marks the D form. Ends that are not written are not given here.

Legend:
[1] = hydrogel formation of peptide solutions (ion or pH trigger); type: physicochemical; conditions: 0.005M peptide concentration
Procedure: (§1) The synthesized peptide was dissolved in DI water to a concentration of 5 mM by adjusting the pH to 8.0-10.0 with 1 M NaOH (Sigma). The h5e acidic solution and acidic h9e hydrogel were made by adjusting the pH to 4.0 with 1 M HCl (Sigma). The h9e Ca^2+ hydrogel was prepared by adding CaCl2 to a basic h9e peptide solution (molar ratio of peptide and Ca^2+ was 1:10, final pH was 7.0 to 9.0). The same method was used to prepare the h5e Ca^2+ solution.

[2] = solubility, stability and morphology of peptide and hydrogel; type: physicochemical; conditions: for solubility of peptide in water: until pH adjusted to neutral or basic
[3] = rheology of peptide hydrogels (storage modulus G', amplitude sweep, temperature profile); type: physicochemical
Procedure: as §1
The storage, G′, and loss, G″, moduli of h9e acidic and Ca^2+ hydrogels were determined on a rheometer system C-VOR 150 (Malvern instruments, Malvern, Worcestershire WR141XZ, United Kingdom) with a 20-mm diameter parallel plate geometry through frequency sweep (strain 1%, frequency 0.01 to 10 Hz, temperature 25° C.), amplitude sweep (strain 1 to 500%, frequency 1 Hz, temperature 25° C.), and temperature profile (strain 1%, frequency 1 Hz, Temperature 5° C., 20° C., 37° C., 50° C., 75° C., and 90° C.) measurements. The multiple amplitude sweep experiments were conducted to test the moduli recovery of peptide hydrogels. The time gap between every two tests was 10, 30, and 60 seconds for h9e Ca^2+ hydrogel.

[4] = test system: PRRSV; test: dynamic viremia after challenge in pigs; type: in vivo; conditions: challenge with VR2332 or MN184a on day 28
Procedure: (§2) A stock solution of h9e peptide (concentration 1.75% by weight in water) was prepared. For the active agent, 2X Ingelvac PRRS MLV (Boehringer Ingelheim Vetmedica, St. Joseph, Mo.) was used. The vaccine was rehydrated by adding half of the contents of the accompanying liquid diluent to the vial containing the virus. Medium was then prepared by adding 0.3 ml bovine serum to 7.2 ml MEM medium (ion source). Next, 5 ml of the peptide stock solution was added to the medium and mixed well. This was then mixed with the vaccine solution. The final concentration of h9e as adjuvant was 0.35% by weight, and the final concentration of serum was […] by weight.
(§3) Vaccines were also prepared using a commercially-available adjuvant, Montanide™ Gel 01 (aqueous polymeric gel veterinary adjuvant, Seppic Inc., Fairfield, N.J.), or a published peptide hydrogel, designated herein as A1/2 (SEQ ID NO:28, corresponding to the N-terminal region of mineral directing gelator (MDG) 1; Gungormus, et al., Biomaterials 31 (2010) 7266-7274).
(§4) 55 PRRSV serum negative pigs were initially divided into 5 vaccination groups and vaccinated on Day 0. […]
(§5) At Day 0, all pigs were weighed, and weight was monitored weekly and recorded on Days 7, 14, 21, and 28. […] Body temperature and clinical signs were monitored daily and recorded. […]

[5] = test system: PRRSV; test: IDEXX ELISA Ab titer in pigs; type: in vivo
Procedure: as §2, §3, §4, §5

[6] = test system: PRRSV; test: dynamic viremia after vaccination in pigs; conditions: pig, in vivo
Procedure: as §2, §3, §4, §5

**Q.** Which “hydrogel formation in Ca^2+ solution” value [1] does the source give for “L5GSIIK10: L5K10 diblock peptide with GSII inserted (LLLLLGSIIKKKKKKKKKK)” here?
**A.** no hydrogel formation was observed

**Q.** Which “solubility of peptide in water” value [2] does the source give for FLIVIGPGGDGPGGD [h5e, FLIVIGPGGDGPGGD] here?
**A.** insoluble in water

**Q.** Which “G' of hydrogel in basic pH” value [3] does the source give for “FLIVIGSIIKKKKKKKKKK (Synthetic peptide adjuvant) [h9e variant with eD2 region replaced by K10]” here?
**A.** 55.0 ± 0.9 Pa

**Q.** What does the source list for “FLIVIGSIIGPGGDGPGGD [h9e, FLIVIGSIIGPGGDGPGGD]”?
**A.** general health / biological safety (immunized mice until sera collection): biologically safe; injection site reaction (redness or swelling) (vaccinated mice): No injection site reaction; temperature stability of hydrogel [2]: up to 90 °C; water solubility of hydrogel [2]: water soluble; solubility of peptide in water [2]: insoluble in water

**Q.** Which “hydrogel formation in Ca^2+ solution” value [1] does the source give for “LLLLLKKKKKKKKKK (Synthetic diblock peptide) [L5K10]” here?
**A.** no hydrogel formation was observed

**Q.** For “A1/2: published peptide hydrogel, N-terminal region of mineral directing gelator (MDG) 1 (VKVKVKVKVPPTKVEVKVKV; Derivative of N-terminal region of mineral directing gelator (MDG) 1)”, which viremia after challenge [4] is on record?
**A.** not

**Q.** And the “ELISA Ab titer after vaccination, compared among groups” value [5]?
**A.** lowest

**Q.** And the “viremia after vaccination compared to the MLV group” value [6]?
**A.** no difference

**Q.** For “L5PP^DK10: L5K10 diblock peptide with sharp turning segment PP^D inserted (LLLLLP[dP]KKKKKKKKKK)”, which “hydrogel formation in Ca^2+ solution” value [1] is on record?
**A.** no hydrogel formation was observed

**Q.** For “GPGGDGPGGD (Hydrophilic region derived from spider flagelliform silk protein) [eD2]”, which “hydrogel formation in Ca^2+ solution” value [1] is on record?
**A.** not able to form hydrogels
